Experimental data taken from patent US20150290148A1 (priority 2006, published 2015).
“Also recorded” adds a separate entry of the source.

How the values were obtained:
[1] = tested on: brain derived neurotrophic factor; assay: Quantitative real time PCR of hippocampal gene expression after IP injection; format: in vivo, Sprague-Dawley rats; settings: 6 hours after single IP 1.0 mg/kg, vs saline
BcL2 = assay: as above; format: in vivo, Sprague-Dawley rats; settings: 6 hours after single IP 1.0 mg/kg, vs saline
neuropeptide Y = assay: as above; format: in vivo, Sprague-Dawley rats; settings: 6 hours after single IP 1.0 mg/kg, vs saline
interleukin 6 (IL6) gene = assay: as above; format: in vivo, Sprague-Dawley rats; settings: 6 hours after single IP 1.0 mg/kg
gerbils [2] = assay: Gerbil 5-min 2-VO transient cerebral ischemia, open field activity; format: in vivo; settings: for distance traveled in open field: tested 48 hrs after surgery, 5 min
Experimental: (§1) Gerbils were anesthetized with isoflurane and core-body temperature maintained at 37-38 C during surgery using a homeothermic blanket (Harvard Apparatus, South Natick, USA). A midline incision was made in the neck and the common carotid arteries were isolated and occluded for 5 min using 85-gm pressure aneurysm clips (ISCH; n=14). A second group of gerbils (SHAM; n=14) underwent the identical procedure except the carotid arteries were not clamped. The incision was sutured and animals received MAP (5 mg/kg; i.p) or equal volume of vehicle (saline; 0 mg) within 2 minutes of reperfusion. Animals were placed in a warmed cage, and observed for 30 minutes. Tylenol (8 mg/ml) was added to drinking water to provide postoperative analgesia.
(§2) Each gerbil was tested 48 hrs following surgery in an open-field apparatus consisting of a metal screen floor 77 cm×77 cm with walls 15 cm in height. Animals were placed in the center region and permitted to explore the novel environment for 5 minutes. Behavioral data (distance traveled, speed) were collected using an automated tracking system (ANY-maze, Stoelting, Ill.) and evaluated separately using ANOVA and the appropriate post hoc test (P<0.05 considered significant). Twenty-one days postsurgery, gerbils were euthanized with CO2 and perfused with phosphate buffered saline followed by 4% paraformaldehyde. Tissue from sham gerbils treated with MAP ([…]) was not evaluated since acute administration of MAP was not expected to histologically alter the hippocampus of this group. Brains were removed and post-fixed for at least 48 hrs prior to collection of 40 μm vibratome sections through the hippocampal region. Sections were mounted on slides and stained with cresyl violet. Damage to the hippocampal CA1 region was evaluated without knowledge of treatment condition by two independent observers using a 4 point rating scale described elsewhere (Babcock et al. 1993). A score of 0 (4-5 compact layers of normal neuronal bodies), 1 (4-5 compact layers with presence of some altered neurons), 2 (spares neuronal bodies with “ghost spaces” and/or glial cells between them), 3 (complete absence or presence of only rare normal neuronal bodies with intense gliosis of the CA1 subfield) was assigned for each animal. Ratings were averaged and evaluated using nonparametric statistics (Kruskal-Wallis and Mann-Whitney U test; P<0.05 considered significant).

gerbils [3] = assay: Preliminary dose study and observations in gerbils following surgery; format: in vivo, gerbil
[4] = tested on: interleukin 10 (IL10) gene; assay: Quantitative real time PCR of hippocampal gene expression after IP injection; format: in vivo, Sprague-Dawley rats
male Wistar rats [5] = assay: MCA embolic stroke in rats, foot fault; format: in vivo, rat; settings: 1.0 mg/kg/hr, started 0, 6 or 12 hours after stroke
male Wistar rats [6] = assay: Traumatic brain injury (fluid percussion) in rats, tolerability; format: in vivo, rat; settings: 0.5 mg/kg/hr 24 hr IV infusion plus bolus after TBI
Experimental: Three groups of male Wistar rats/group were used in this study. The animals were given 0 (vehicle control; saline), 0 (sham controls) or 0.5 mg/kg/hr MA via a 24 hr continuous IV infusion starting 3 hr after […] on Day 0. The test article was administered via an Alzet mini-osmotic pump at a rate of 0.0073 mL/hour. The dose concentration of MA loaded in the Alzet pump varied between animals (45.8-65.0 mg/mL), and was based on individual animal body weight on Day 0 and the dose concentration that would yield 0.5 mg/kg/hr MA at an infusion rate of 0.0073 mL/hr. Dosing of the animals was staggered over a 4-month period.
Prior to test article administration, all rats were subjected to a surgical procedure to produce a fluid percussion injury. Adult Sprague-Dawley rats (male, 350-500 g) are anesthetized with isoflurane anesthesia (1% isofluorane in 1 L/min O2) via face mask to effect for a small craniectomy (4.80 mm) and placement of a rigid Luer-loc needle hub (3 mm inside diameter). After luer lock hub placement, the hub is connected to the Cell Injury Controller through high pressure rubber tubing that delivers an fluid pulse to the dura. […] The righting reflex time after injury was recorded. […] Animals were monitored 3-4 times a day for the first 48 hr following surgery and daily thereafter for 14 days.

male Wistar rats [7] = assay: MCA embolic stroke in rats, modified neurological severity score / neurobehavioral outcomes
Source text: Male Wistar rats at ages of 8-12 weeks, weighing 300-450 g were used in all experiments. A donor rat was anesthetized with 3.5% Isoflurane, and anesthesia was maintained with 1.0-1.5% Isoflurane in 70% N2O and 30% O2 using a face mask. […] Rats were then anesthetized with 3.5% Isoflurane, and anesthesia was maintained with 1.0-1.5% Isoflurane in 70% N2O and 30% O2 using a face mask throughout the surgical procedure. The animal's muzzle was placed in the face mask 2 cm from the surgical site. Rectal temperature was maintained at 37±″0.5° C. throughout the surgical procedure using an electric heating system. Under a surgical operating microscope) the right common carotid arteries (CCA), the right external carotid artery (ECA) and the internal carotid artery (ICA) were isolated via a 3 cm ventral neck midline incision. A 6-0 silk suture was loosely tied at the origin of the ECA and ligated at the distal end of the ECA. The right CCA and ICA was temporarily clamped using a curved microvascular clip (Codman & Shurtleff, Inc., Randolf, MAP, USA). A modified PE-50 catheter filled with a single clot (˜1 μl), was attached to a 100-μl Hamilton syringe, and introduced into the ECA lumen through a small puncture. The suture around the origin of the ECA was tightened around the intraluminal catheter to prevent bleeding, and the microvascular clip was removed. The catheter was gently advanced from the ECA into the lumen of the ICA. The clot along with 5 μl of saline in the catheter was injected into the ICA over 10 seconds. The catheter was withdrawn from the right ECA immediately after injection. The right ECA was ligated. The duration of the entire surgical procedure was approximately 25 min.
Implantation of osmotic pumps for the purpose of continuous IV infusion occurred at both 6 and 12 hours after delivery of the 4cm clot. Experimental control for the experiment was achieved by substituting methamphetamine for physiological saline. Briefly, at 6 or 12 hours post stroke animals were re-anesthetized using 1-3% isoflurane. After a state of anesthesia was achieved the right side groin area was shaved. After shaving, surgical tape was utilized to remove excess hair. The area was scrubbed with betadine and allowed to dry.
A small incision was made and the groin area was blunt dissected to expose the femoral vein. The femoral vein was separated with surgical tweezers and the distal end was permanently ligated using 6-0 silk thread. The proximal end was ligated and a 0.2 mm incision (approximate) was made in the femoral vein. A 2.5 cm length of polyvinyl tubing (OD 0.07mm) connected to a pre-loaded osmotic pump (Alzet Corp. model 2001D; 6.6 microliters per hour for 24 hrs) was inserted into the vein and gently pushed up towards midline of the body. The tubing was inserted until 0.5 cm was exposed from the vein. The tubing was tied around the vein in two locations using 6-0 silk spaced approximately 2 mm apart. A small pocket was blunt dissected along the groin/abdominal area. The osmotic pump was inserted into the area on the outer wall of the abdomen underneath the skin and sutured into the abdominal fascia using 4-0 synthetic suture. The incision was closed using 4-0 synthetic suture. At 48-72 hours after initial insertion the animal was anesthetized, the groin area was scrubbed with betadine, the incision was reopened, blunt dissected, and the pump exposed. The sutures holding the pump and tubing in place were cut, the pump removed, and the femoral vein was permanently ligated using 6-0 silk suture. The pump was discarded and the incision was closed using 4-0 synthetic suture.

hippocampal CA1 region = assay: Gerbil 5-min 2-VO transient cerebral ischemia, histological rating of hippocampal CA1; format: in vivo; settings: for damage to hippocampal CA1 following ischemic insult: MAP 5 mg/kg 1-2 minutes after ischemic insult
Experimental: as §1, §2

male Wistar rats [8] = assay: MCA embolic stroke in rats, adhesive tape removal test; format: in vivo, rat
[9] = rats; cited from earlier work
male Wistar rats [10] = assay: MCA embolic stroke in rats, infarct size by TTC staining; format: in vivo, rat
neurotrophic factor 3 = assay: Quantitative real time PCR of hippocampal gene expression after IP injection; format: in vivo, Sprague-Dawley rats; settings: 6 hours after single IP 1.0 mg/kg, vs saline
[11] = 0.1 mg/kg/hr IV infusion 24 hrs, immediately after stroke
[12] = 1.0 mg/kg/hr IV infusion 24 hrs, started 6 hours after stroke
[13] = 1.0 mg/kg/hr IV infusion 24 hrs, started 6 hours after stroke, listed as MAP
[14] = 1.0 mg/kg/hr IV infusion 24 hrs, started 12 hours after stroke, listed as MAP
[15] = 0.5 and 1.0 mg/kg/hr IV infusion 24 hrs, immediately after stroke
[16] = 0.5 and 1.0 mg/kg/hr IV infusion 24 hrs, immediately after stroke, listed as MAP

## CN[C@@H](C)Cc1ccccc1 [methamphetamine]
[1]
  change in brain derived neurotrophic factor gene expression in hippocampus: +141%
BcL2
  change in BcL2 gene expression in hippocampus: +167%
Neuropeptide Y
  change in neuropeptide Y gene expression in hippocampus: +192%
Interleukin 6 (IL6) gene
  IL6 expression in hippocampus vs saline: not significantly different from saline treated animals
Gerbils [2]; MAP 5 mg/kg i.p., 48 hrs after surgery
  open field activity, SHAM+5 mg vs SHAM+0 mg: failed to significantly alter activity levels
Gerbils [2]; MAP 5 mg/kg i.p., 48 hrs after surgery, listed as MAP
  open field activity, ischemic vs sham gerbils both treated with MAP: not significantly different; also recorded: comparable to control levels
Gerbils [2]; ischemic gerbils, MAP 5 mg/kg i.p. within 2 min of reperfusion
  distance traveled in open field: 66.3 m
Gerbils [2]; sham gerbils, MAP 5 mg/kg i.p.
  distance traveled in open field: 72.7 m
Gerbils [3]; doses greater than 5 mg/kg (10 and 20 mg/kg)
  lethality in gerbils following surgery: lethal
Gerbils [3]; gerbils, MAP 5 mg/kg i.p. after surgery
  clinical observation after treatment: became piloerect with their tails pointing up
[4]; 1 hour after single IP 1.0 mg/kg, vs saline
  change in IL10 gene expression in hippocampus: 445%
[4]; 6 hours after single IP 1.0 mg/kg
  IL10 expression in hippocampus vs saline: not significantly different from saline treated animals
Male Wistar rats [5]
  foot fault values: significant improvements in foot fault values
Male Wistar rats [6]
  tolerability: well tolerated with no toxicity
Male Wistar rats [7]; [11]
  neurobehavioral outcomes (neurological severity score): improved neurobehavioral outcomes
Male Wistar rats [7]; [12]
  neurobehavioral outcomes (neurological severity score): significant improvement in neurological severity scores; also recorded: significantly decreased neurobehavioral deficits
Male Wistar rats [7]; [13]
  neurobehavioral outcomes (neurological severity score): improved neurobehavioral outcomes on all testing parameters
Male Wistar rats [7]; 1.0 mg/kg/hr IV infusion 24 hrs, started 12 hours after stroke
  neurobehavioral outcomes (neurological severity score): significant improvement in neurological severity scores; also recorded: significantly decreased neurobehavioral deficits
Male Wistar rats [7]; [14]
  neurobehavioral outcomes (neurological severity score): robust effect on neurobehavioral outcomes
Male Wistar rats [7]; [15]
  neurobehavioral outcomes (neurological severity score): significant improvement in neurological severity scores
Male Wistar rats [7]; [16]
  neurobehavioral outcomes (neurological severity score): improved neurobehavioral outcomes
Hippocampal CA1 region; ISCH+5 mg MAP group, 21 days after ischemic insult
  histological rating score of hippocampal CA1 damage (0-3 scale): 0.07±0.07
Hippocampal CA1 region; 21 days
  damage to hippocampal CA1 following ischemic insult: significantly reduced damage to the hippocampal CA1; also recorded: failed to exhibit any damage to the hippocampus
Hippocampal CA1 region; 21 days, listed as MAP
  damage to hippocampal CA1 following ischemic insult: prevented any significant loss of hippocampal CA1 pyramidal cells
Hippocampal CA1 region; ischemic gerbils treated with MAP 5 mg/kg, 21 days
  animals with any detectable neuronal pathology in the hippocampus: 1 of 7
Male Wistar rats [8]; [11]
  time to remove adhesive tape, day 7 vs day 1: no significant change in the time to remove tape
Male Wistar rats [8]; 1 mg/kg/hr started 6 hours after stroke
  time to remove adhesive tape, day 7 vs day 1: improvement in function was still observed
Male Wistar rats [8]; 1 mg/kg/hr withheld until 12 hours after stroke (data not shown)
  time to remove adhesive tape, day 7 vs day 1: failed to produce an effect
Male Wistar rats [8]; 0.5 or 1.0 mg/kg/hr IV infusion 24 hrs, immediately after stroke
  time to remove adhesive tape, day 7 vs day 1: required significantly less time to remove the tape
[9]
  half-life: approximately 1 hr
Male Wistar rats [10]; [11]
  infarct size / infarct volume at 7 days: No significant reductions in infarct volumes
Male Wistar rats [10]; 0.1 mg/kg/hr IV infusion 24 hrs, immediately after stroke, listed as MAP
  infarct size / infarct volume at 7 days: failed to decrease the infarct size
Male Wistar rats [10]; [12]
  infarct size / infarct volume at 7 days: significant reduction in infarct volumes; also recorded: significantly reduces infarct size
Male Wistar rats [10]; [13]
  infarct size / infarct volume at 7 days: significantly reduced infarct size
Male Wistar rats [10]; [14]
  infarct size / infarct volume at 7 days: still significantly reduces infarct size
Male Wistar rats [10]; [15]
  infarct size / infarct volume at 7 days: reduces brain damage (infarct size); also recorded: significant reduction in infarct volumes
Male Wistar rats [10]; [16]
  infarct size / infarct volume at 7 days: decreased infarct size
Male Wistar rats [10]; 0.5 and 1.0 mg/kg/hr IV infusion 24 hrs, immediately after stroke, listed as Methamphetamine
  infarct size / infarct volume at 7 days: decreases infarct size
Male Wistar rats [10]; infusion beginning 12 hours after stroke
  animals with substantial reduction in infarct volumes: Four out of the nine
Neurotrophic factor 3
  change in neurotrophic factor 3 gene expression in hippocampus: +192%
